# Laboratory results: patent US8952024B2, “Herbicidal pyrimidone derivatives” (E I du Pont de Nemours and Company, priority 2009, dated 2015)
# Experiments:
# Assay in all cases: Test B pre-/postemergence plant response
# Assay type in all cases: in vivo
# [1] = tested on: morningglory (Ipomoea coccinea); conditions: for Morningglory plant response rating (0 to 100 scale): 62 g ai/ha, 0 is no effect, 13 to 15 days
# Procedure, shortened: (§1)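 Pre-em in loam/sand; post-em at 1–4 leaf (2–18 cm) in peat mix. Solvent + surfactant formulation. Greenhouse 13–15 d; visual % control vs untreated, 0–100.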
# [2] = tested on: johnsongrass (Sorghum halepense); conditions: for Johnsongrass plant response rating (0 to 100 scale): 62 g ai/ha, 0 is no effect, 13 to 15 days
# Procedure, shortened: as §1
# [3] = tested on: Surinam grass (Brachiaria decumbens); conditions: for Surinam Grass plant response rating (0 to 100 scale): 62 g ai/ha, 0 is no effect, 13 to 15 days
# Procedure, shortened: as §1
# [4] = tested on: lambsquarters (Chenopodium album); conditions: for Lambsquarters plant response rating (0 to 100 scale): 62 g ai/ha, 0 is no effect, 13 to 15 days
# Procedure, shortened: as §1
# [5] = tested on: large crabgrass (Digitaria sanguinalis); conditions: for Crabgrass, Large plant response rating (0 to 100 scale): 62 g ai/ha, 0 is no effect, 13 to 15 days
# Procedure, shortened: as §1
# soybean (Glycine max) = conditions: for Soybean plant response rating (0 to 100 scale): 62 g ai/ha, 0 is no effect, 13 to 15 days
# Procedure, shortened: as §1
# corn (Zea mays) = conditions: for Corn plant response rating (0 to 100 scale): 62 g ai/ha, 0 is no effect, 13 to 15 days
# Procedure, shortened: as §1
# [6] = tested on: downy bromegrass (Bromus tectorum); conditions: for Bromegrass, Downy plant response rating (0 to 100 scale): 62 g ai/ha, 0 is no effect, 13 to 15 days
# Procedure, shortened: as §1
# [7] = tested on: goosegrass (Eleusine indica); conditions: for Goosegrass plant response rating (0 to 100 scale): 62 g ai/ha, 0 is no effect, 13 to 15 days
# Procedure, shortened: as §1
# [8] = tested on: pigweed (Amaranthus retroflexus); conditions: for Pigweed plant response rating (0 to 100 scale): 62 g ai/ha, 0 is no effect, 13 to 15 days
# Procedure, shortened: as §1
# kochia (Kochia scoparia) = conditions: for Kochia plant response rating (0 to 100 scale): 62 g ai/ha, 0 is no effect, 13 to 15 days
# Procedure, shortened: as §1
# [9] = tested on: blackgrass (Alopecurus myosuroides); conditions: for Blackgrass plant response rating (0 to 100 scale): 62 g ai/ha, 0 is no effect, 13 to 15 days
# Procedure, shortened: as §1
# [10] = tested on: velvetleaf (Abutilon theophrasti); conditions: for Velvetleaf plant response rating (0 to 100 scale): 62 g ai/ha, 0 is no effect, 13 to 15 days
# Procedure, shortened: as §1
# [11] = tested on: yellow nutsedge (Cyperus esculentus); conditions: for Nutsedge, Yellow plant response rating (0 to 100 scale): 62 g ai/ha, 0 is no effect, 13 to 15 days
# Procedure, shortened: as §1
# [12] = tested on: woolly cupgrass (Eriochloa villosa); conditions: for Cupgrass, Woolly plant response rating (0 to 100 scale): 62 g ai/ha, 0 is no effect, 13 to 15 days
# Procedure, shortened: as §1
# wild oat (Avena fatua) = conditions: for Oat, Wild plant response rating (0 to 100 scale): 62 g ai/ha, 0 is no effect, 13 to 15 days
# Procedure, shortened: as §1
# [13] = tested on: green foxtail (Setaria viridis); conditions: for Foxtail, Green plant response rating (0 to 100 scale): 62 g ai/ha, 0 is no effect, 13 to 15 days
# Procedure, shortened: as §1
# [14] = 31 g ai/ha, postemergence, scale 0 to 100, 0 is no effect, 100 is complete control
# [15] = postemergence, 100 is complete control
# [16] = Postemergence, 125 g ai/ha, visual rating after 13 to 15 days, scale 0 (no effect) to 100 (complete control)
# [17] = Postemergence, 250 g ai/ha, scale 0 to 100 (0 no effect, 100 complete control)
structure (smiles),measurement,setting,value
CCCc1ncc(C(=O)C2=C(O)CCCC2=O)c(=O)n1-c1cccc(C)c1 [Compound 79],"Plant response rating, Morningglory",[1]; [14],80
same,Morningglory plant response rating (0 to 100 scale),[1]; [15],95
same,"Plant response rating, Morningglory",[1]; [16],100
same,"Plant response rating, Morningglory",[1]; [17],100
same,"Plant response rating, Johnsongrass",[2]; [14],0
same,Johnsongrass plant response rating (0 to 100 scale),[2]; [15],65
same,"Plant response rating, Johnsongrass",[2]; [16],70
same,"Plant response rating, Johnsongrass",[2]; [17],75
same,"Plant response rating, Surinam Grass",[3]; [14],20
same,Surinam Grass plant response rating (0 to 100 scale),[3]; [15],45
same,"Plant response rating, Surinam Grass",[3]; [16],75
same,"Plant response rating, Surinam Grass",[3]; [17],90
same,"Plant response rating, Lambsquarters",[4]; [14],95
same,Lambsquarters plant response rating (0 to 100 scale),[4]; [15],98
same,"Plant response rating, Lambsquarters",[4]; [16],100
same,"Plant response rating, Lambsquarters",[4]; [17],100
same,"Plant response rating, Crabgrass, Large",[5]; [14],80
same,"Crabgrass, Large plant response rating (0 to 100 scale)",[5]; [15],85
same,"Plant response rating, Crabgrass, Large",[5]; [16],90
same,"Plant response rating, Crabgrass, Large",[5]; [17],95
same,"Plant response rating, Soybean",soybean (Glycine max); [14],75
same,Soybean plant response rating (0 to 100 scale),soybean (Glycine max); [15],90
same,"Plant response rating, Soybean",soybean (Glycine max); [16],95
same,"Plant response rating, Soybean",soybean (Glycine max); [17],98
same,"Plant response rating, Corn",corn (Zea mays); [14],5
same,Corn plant response rating (0 to 100 scale),corn (Zea mays); [15],45
same,"Plant response rating, Corn",corn (Zea mays); [16],60
same,"Plant response rating, Corn",corn (Zea mays); [17],75
same,"Plant response rating, Bromegrass, Downy",[6]; [14],5
same,"Bromegrass, Downy plant response rating (0 to 100 scale)",[6]; [15],10
same,"Plant response rating, Bromegrass, Downy",[6]; [16],30
same,"Plant response rating, Bromegrass, Downy",[6]; [17],65
same,"Plant response rating, Goosegrass",[7]; [14],45
same,Goosegrass plant response rating (0 to 100 scale),[7]; [15],65
same,"Plant response rating, Goosegrass",[7]; [16],70
same,"Plant response rating, Goosegrass",[7]; [17],80
same,"Plant response rating, Pigweed",[8]; [14],100
same,Pigweed plant response rating (0 to 100 scale),[8]; [15],100
same,"Plant response rating, Pigweed",[8]; [16],100
same,"Plant response rating, Pigweed",[8]; [17],100
same,"Plant response rating, Kochia",kochia (Kochia scoparia); [14],75
same,Kochia plant response rating (0 to 100 scale),kochia (Kochia scoparia); [15],75
same,"Plant response rating, Kochia",kochia (Kochia scoparia); [16],75
same,"Plant response rating, Kochia",kochia (Kochia scoparia); [17],80
same,"Plant response rating, Blackgrass",[9]; [14],5
same,Blackgrass plant response rating (0 to 100 scale),[9]; [15],15
same,"Plant response rating, Blackgrass",[9]; [16],30
same,"Plant response rating, Blackgrass",[9]; [17],45
same,"Plant response rating, Velvetleaf",[10]; [14],95
same,Velvetleaf plant response rating (0 to 100 scale),[10]; [15],98
same,"Plant response rating, Velvetleaf",[10]; [16],98
same,"Plant response rating, Velvetleaf",[10]; [17],100
same,"Plant response rating, Nutsedge, Yellow",[11]; [14],25
same,"Nutsedge, Yellow plant response rating (0 to 100 scale)",[11]; [15],60
same,"Plant response rating, Nutsedge, Yellow",[11]; [16],70
same,"Plant response rating, Nutsedge, Yellow",[11]; [17],80
same,"Plant response rating, Cupgrass, Woolly",[12]; [14],10
same,"Cupgrass, Woolly plant response rating (0 to 100 scale)",[12]; [15],40
same,"Plant response rating, Cupgrass, Woolly",[12]; [16],65
same,"Plant response rating, Cupgrass, Woolly",[12]; [17],75
same,"Plant response rating, Oat, Wild",wild oat (Avena fatua); [14],40
same,"Oat, Wild plant response rating (0 to 100 scale)",wild oat (Avena fatua); [15],45
same,"Plant response rating, Oat, Wild",wild oat (Avena fatua); [16],60
same,"Plant response rating, Oat, Wild",wild oat (Avena fatua); [17],75
same,"Plant response rating, Foxtail, Green",[13]; [14],60
same,"Foxtail, Green plant response rating (0 to 100 scale)",[13]; [15],60
same,"Plant response rating, Foxtail, Green",[13]; [16],80
same,"Plant response rating, Foxtail, Green",[13]; [17],98
COCCOCCn1c(-c2ccccc2)ncc(C(=O)C2=C(O)CCCC2=O)c1=O [Compound 91],"Plant response rating, Morningglory",[1]; [14],75
same,Morningglory plant response rating (0 to 100 scale),[1]; [15],90
same,"Plant response rating, Morningglory",[1]; [17],98
same,"Plant response rating, Johnsongrass",[2]; [14],65
same,Johnsongrass plant response rating (0 to 100 scale),[2]; [15],90
same,"Plant response rating, Johnsongrass",[2]; [17],100
same,"Plant response rating, Surinam Grass",[3]; [14],85
same,Surinam Grass plant response rating (0 to 100 scale),[3]; [15],98
same,"Plant response rating, Surinam Grass",[3]; [17],98
same,"Plant response rating, Lambsquarters",[4]; [14],85
same,Lambsquarters plant response rating (0 to 100 scale),[4]; [15],100
same,"Plant response rating, Lambsquarters",[4]; [17],100
same,"Plant response rating, Crabgrass, Large",[5]; [14],80
same,"Crabgrass, Large plant response rating (0 to 100 scale)",[5]; [15],95
same,"Plant response rating, Crabgrass, Large",[5]; [16],98
same,"Plant response rating, Crabgrass, Large",[5]; [17],100
same,"Plant response rating, Soybean",soybean (Glycine max); [14],75
same,Soybean plant response rating (0 to 100 scale),soybean (Glycine max); [15],85
same,"Plant response rating, Soybean",soybean (Glycine max); [17],98
same,"Plant response rating, Corn",corn (Zea mays); [14],25
same,Corn plant response rating (0 to 100 scale),corn (Zea mays); [15],35
same,"Plant response rating, Corn",corn (Zea mays); [16],45
same,"Plant response rating, Corn",corn (Zea mays); [17],60
same,"Plant response rating, Bromegrass, Downy",[6]; [14],0
same,"Bromegrass, Downy plant response rating (0 to 100 scale)",[6]; [15],5
same,"Plant response rating, Bromegrass, Downy",[6]; [16],5
same,"Plant response rating, Bromegrass, Downy",[6]; [17],30
same,"Plant response rating, Goosegrass",[7]; [14],30
same,Goosegrass plant response rating (0 to 100 scale),[7]; [15],75
same,"Plant response rating, Goosegrass",[7]; [17],85
same,"Plant response rating, Pigweed",[8]; [14],100
same,Pigweed plant response rating (0 to 100 scale),[8]; [15],100
same,"Plant response rating, Pigweed",[8]; [17],100
same,"Plant response rating, Kochia",kochia (Kochia scoparia); [14],20
same,Kochia plant response rating (0 to 100 scale),kochia (Kochia scoparia); [15],80
same,"Plant response rating, Kochia",kochia (Kochia scoparia); [17],95
same,"Plant response rating, Blackgrass",[9]; [14],10
same,Blackgrass plant response rating (0 to 100 scale),[9]; [15],20
same,"Plant response rating, Blackgrass",[9]; [16],30
same,"Plant response rating, Blackgrass",[9]; [17],50
same,"Plant response rating, Velvetleaf",[10]; [14],98
same,Velvetleaf plant response rating (0 to 100 scale),[10]; [15],100
same,"Plant response rating, Velvetleaf",[10]; [17],100
same,"Plant response rating, Nutsedge, Yellow",[11]; [14],50
same,"Nutsedge, Yellow plant response rating (0 to 100 scale)",[11]; [15],65
same,"Plant response rating, Nutsedge, Yellow",[11]; [17],75
same,"Plant response rating, Cupgrass, Woolly",[12]; [14],70
same,"Cupgrass, Woolly plant response rating (0 to 100 scale)",[12]; [15],85
same,"Plant response rating, Cupgrass, Woolly",[12]; [16],98
same,"Plant response rating, Cupgrass, Woolly",[12]; [17],98
same,"Plant response rating, Oat, Wild",wild oat (Avena fatua); [14],30
same,"Oat, Wild plant response rating (0 to 100 scale)",wild oat (Avena fatua); [15],30
same,"Plant response rating, Oat, Wild",wild oat (Avena fatua); [17],50
same,"Plant response rating, Foxtail, Green",[13]; [14],70
same,"Foxtail, Green plant response rating (0 to 100 scale)",[13]; [15],85
same,"Plant response rating, Foxtail, Green",[13]; [17],98
